Literature values as cited in patent US4335127A, “Piperidinylalkyl quinazoline compounds, composition and method of use” (Janssen Pharmaceutica, N.V., priority 1979, dated 1982).

Assays:
[1] = test system: lesions in the glandular area of the stomach and distension of the stomach induced by compound 48/80 in rats; conditions: rats treated with compound 48/80; cited from earlier work
[2] = test system: cyanosis of ears and extremities induced by compound 48/80 in rats; conditions: rats treated with compound 48/80; cited from earlier work
Further: test concentration or dose not given here.

CN1C[C@H](CNC(=O)OCc2ccccc2)C[C@@H]2c3cccc4c3c(cn4C)C[C@H]21 [metergoline]
prevent completely: prevention of the abnormal gastric distension (known serotonin antagonists) [1] | prevention of the lesions in the glandular area of the stomach (known serotonin antagonists) [1] | prevention of the cyanosis of ears and extremities (known serotonin antagonists) [2]

CC[C@@H](CO)NC(=O)[C@@H]1C=C2c3cccc4c3c(cn4C)C[C@H]2N(C)C1 [methysergide]
prevent completely: prevention of the abnormal gastric distension (known serotonin antagonists) [1] | prevention of the lesions in the glandular area of the stomach (known serotonin antagonists) [1] | prevention of the cyanosis of ears and extremities (known serotonin antagonists) [2]

CN1CCC(=C2c3ccccc3CCc3sccc32)CC1 [pizotifen]
prevent completely: prevention of the abnormal gastric distension (known serotonin antagonists) [1] | prevention of the lesions in the glandular area of the stomach (known serotonin antagonists) [1] | prevention of the cyanosis of ears and extremities (known serotonin antagonists) [2]

O=C(CCCN1CCC2(CC1)C(=O)NCN2c1ccccc1)c1ccc(F)cc1 [spiperone]
prevent completely: prevention of the abnormal gastric distension (known serotonin antagonists) [1] | prevention of the lesions in the glandular area of the stomach (known serotonin antagonists) [1] | prevention of the cyanosis of ears and extremities (known serotonin antagonists) [2]

CN1CCN2c3ccccc3Cc3ccccc3C2C1 (stereo not drawn) [mianserin]
prevent completely: prevention of the abnormal gastric distension (known serotonin antagonists) [1] | prevention of the lesions in the glandular area of the stomach (known serotonin antagonists) [1] | prevention of the cyanosis of ears and extremities (known serotonin antagonists) [2]

NC(=O)C1(N2CCCCC2)CCN(CCCC(=O)c2ccc(F)cc2)CC1 [pipamperone]
prevent completely: prevention of the abnormal gastric distension (known serotonin antagonists) [1] | prevention of the lesions in the glandular area of the stomach (known serotonin antagonists) [1] | prevention of the cyanosis of ears and extremities (known serotonin antagonists) [2]
